Test results taken from ChEMBL document CHEMBL4373715, “Discovery and Biological Evaluations of Halogenated 2,4-Diphenyl Indeno[1,2-b]pyridinol Derivatives as Potent Topoisomerase IIα-Targeted Chemotherapeutic Agents for Breast Cancer” (J Med Chem, 2019).
Activity calls are given as the source filed them. The calls are words filed in the database; no cut-off is given here.

Experiments:
[1] = Stability in rat plasma assessed as parent compound remaining at 1 mM measured after 1 hr by LC-MS/MS analysis; type: ADME, cell-free; settings: read-out: Stability
HeLa = assay: Antiproliferative activity against human HeLa cells measured after 72 hrs by EZ-Cytox assay; type: functional, cell-based
[2] = Half life in Sprague-Dawley rat liver microsomes at 1 mM in presence of NADPH by LC-MS/MS analysis; type: ADME, Microsome
[3] = Stability in mouse plasma assessed as parent compound remaining at 1 mM measured after 2 hrs by LC-MS/MS analysis; type: ADME, cell-free; settings: 1000 µM
Calf thymus DNA = assay: Inhibition of EtBr binding to calf thymus DNA up to 40 uM measured after 30 mins by fluorescence assay; type: nucleic-acid assay; settings: Bos taurus
[4] = Stability in human plasma assessed as parent compound remaining at 1 mM measured after 2 hrs by LC-MS/MS analysis; type: ADME, cell-free; settings: read-out: Stability
T47D [5] = assay: Induction of apoptosis in human T47D cells assessed as decrease in bcl-2 expression at 10 to 30 uM measured after 24 hrs by Western blot analysis; type: functional, cell-based
[6] = Protein binding in rat plasma assessed as unbound fraction at 1 mM measured immediately by LC-MS/MS analysis; type: ADME, cell-free
HCC70 = assay: Antiproliferative activity against human HCC70 cells measured after 72 hrs by Ez-cytox assay; type: functional, cell-based; settings: HCC70, 72 h, read-out: IC50
[7] = Stability in mouse plasma assessed as parent compound remaining at 1 mM measured after 0.5 hrs by LC-MS/MS analysis; type: ADME, cell-free; settings: 1000 µM
[8] = Toxicity in male ICR mouse assessed as physical abnormalities at 50 to 100 mg/kg, iv administered as single dose measured up to 7 days; type: organism-based; settings: in vivo, 168 h
[9] = Stability in human plasma assessed as parent compound remaining at 1 mM measured after 0.25 hrs by LC-MS/MS analysis; type: ADME, cell-free; settings: read-out: Stability
[10] = Half life in ICR mouse liver microsomes at 1 mM in presence of NADPH by LC-MS/MS analysis; type: ADME, Microsome
[11] = Stability in mouse plasma assessed as parent compound remaining at 1 mM measured immediately by LC-MS/MS analysis; type: ADME, cell-free; settings: read-out: Stability
[12] = Stability in rat plasma assessed as parent compound remaining at 1 mM measured after 2 hrs by LC-MS/MS analysis; type: ADME, cell-free; settings: 1000 µM
[13] = Stability in rat plasma assessed as parent compound remaining at 1 mM measured after 0.5 hrs by LC-MS/MS analysis; type: ADME, cell-free; settings: read-out: Stability
HCT-15 = assay: Antiproliferative activity against human HCT15 cells measured after 72 hrs by EZ-Cytox assay; type: functional, cell-based; settings: HCT-15, 72 h
[14] = Toxicity in female ICR mouse assessed as mortality at 100 mg/kg, iv administered as single dose measured daily for 7 days (reference value: 0%); type: organism-based; settings: in vivo
[15] = Stability in human plasma assessed as parent compound remaining at 1 mM measured after 4 hrs by LC-MS/MS analysis; type: ADME, cell-free; settings: read-out: Stability
[16] = Stability in human plasma assessed as parent compound remaining at 1 mM measured after 1 hr by LC-MS/MS analysis; type: ADME, cell-free; settings: read-out: Stability
T47D [17] = assay: Antiproliferative activity against human T47D cells measured after 72 hrs by EZ-Cytox assay; type: functional, cell-based
[18] = Toxicity in male ICR mouse assessed as change in body weight at 50 to 100 mg/kg, iv administered as single dose measured daily for 7 days; type: organism-based; settings: in vivo, 168 h
[19] = Stability in human plasma assessed as parent compound remaining at 1 mM measured after 0.5 hrs by LC-MS/MS analysis; type: ADME, cell-free; settings: read-out: Stability
[20] = Stability in mouse plasma assessed as parent compound remaining at 1 mM measured after 4 hrs by LC-MS/MS analysis; type: ADME, cell-free; settings: 1000 µM
[21] = Stability in rat plasma assessed as parent compound remaining at 1 mM measured after 0.25 hrs by LC-MS/MS analysis; type: ADME, cell-free; settings: read-out: Stability

`Oc1ccc(-c2cc(-c3ccccc3Cl)nc3c2Cc2c(O)cccc2-3)cc1` gave a remaining at 1 h [1] of 111%, an IC50 (HeLa) of 2460 nM and a half-life [2] of 26 h. For the same compound, the Stability [3] was 116.3%, the inhibition (Calf thymus DNA) was “inactive” and the remaining at 2 h [4] was 100%. For the same compound, the Activity (T47D [5]) was “Active”, the fraction unbound at 0 h [6] was 1 and the IC50 (HCC70) was 2080 nM. The Stability [7] was 117.1%, the Activity [8] was “Non-Toxic” and the remaining at 0.25 h [9] was 98.7%. The half-life [10] was 2.61 h, the remaining at 0 h [11] was 100% and the Stability [12] was 119.6%. For the same compound, the remaining at 0.5 h [13] was 99.8%, the IC50 (HCT-15) was 14 nM and the mortality at 168 h [14] was 0%. The remaining at 4 h [15] was 105%, the remaining at 1 h [16] was 104% and the IC50 (T47D [17]) was 2.67 nM. The Activity [18] was “Non-Toxic”, the remaining at 0.5 h [19] was 99.3% and the Stability [20] was 130.8%. The remaining at 0.25 h [21] was 102%.
